Experimental findings from US20210038607A1, “OXADIAZOLYLTHIOPHENE DERIVATIVES USEFUL AS HISTONE DEACETYLASE INHIBITORS” (Karus Therapeutics Limited, priority 2018, published 2021) are described below.

Experiment [1] addresses T1, Human HDAC10 (Homo sapiens, UniProt Q969S8).
T1 construct: Human HDAC10 (a.a. 1-481); GST (N); His (C); host or cells: baculovirus expression system
T1 sequence (Q969S8 1-481): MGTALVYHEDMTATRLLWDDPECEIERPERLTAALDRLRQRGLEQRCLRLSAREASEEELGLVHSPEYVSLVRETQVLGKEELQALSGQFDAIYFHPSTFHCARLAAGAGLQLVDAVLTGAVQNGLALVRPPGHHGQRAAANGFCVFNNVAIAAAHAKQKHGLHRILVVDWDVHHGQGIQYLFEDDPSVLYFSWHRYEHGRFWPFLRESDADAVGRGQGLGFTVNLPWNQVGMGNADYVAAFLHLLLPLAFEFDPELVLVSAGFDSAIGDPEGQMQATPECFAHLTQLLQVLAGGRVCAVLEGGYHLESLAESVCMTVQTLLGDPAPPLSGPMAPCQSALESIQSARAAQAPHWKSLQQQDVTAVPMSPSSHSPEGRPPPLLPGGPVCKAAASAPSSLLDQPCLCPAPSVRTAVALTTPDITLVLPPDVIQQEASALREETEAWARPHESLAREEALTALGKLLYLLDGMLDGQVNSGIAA
The experiment can be described thus: HDAC10 biochemical assay, AMC-labeled peptide substrate. The following applies: read-out: HDAC Isoform IC50 (nM) 10. Here is the method:
(§1) Activity against all zinc-dependent HDACs 1 to 11 was assessed by using an acetylated AMC-labeled peptide substrate. The substrate RHKK(Ac)AMC was used for HDAC1, HDAC2, HDAC3, HDAC6 and HDAC10; the substrate used for HDAC8 was RHK(Ac)K(Ac)AMC. Activity against the class IIa HDACs (HDAC4, 5, 7, 9) and HDAC11 was determined using a class IIa-specific substrate, BOC-Lys(trifluoroacetyl)-AMC (“Trifluoroacetyl Lysine”; see Lahm et al, 2007, PNAS, 104, 17335-17340). All assays were based on the AMC-labeled substrate and developer combination.
(§2) The protocol involved a two-step reaction: first, the substrate with the acetylated lysine side chain is incubated with a sample containing HDAC activity, to produce the deacetylated products, which are then digested in the second step by the addition of developer to produce the fluorescent signal proportional to the amount of deacetylated substrates.
Human HDAC10 (a.a. 1-481), GenBank Accession No. NM_032019 with N-terminal GST tag and C-terminal His tag, MW=78 kDa, expressed in baculovirus expression system.
(§3) Assay Buffer: 50 mM Tris-HCl, pH8.0, 137 mM NaCl, 2.7 mM KCl, 1 mM MgC2. Before use, 1 mg/mL BSA and DMSO are added.
HDAC10: 12 ng/ul HDAC10 and 50 μM HDAC substrate are in the reaction buffer with 1% DMSO final. Incubate for 2 hours at 30° C.
(§4) Stage 1: Deacetylation of substrate by incubation of HDAC enzymes with compounds
(§5) Stage 2: Development by addition of Developer to digest the deacetylated substrate, and generate the fluorescent colour; Detection: 360/460 Ex/Em

Experiment [2] addresses T2, Human HDAC11 (Homo sapiens, UniProt Q96DB2).
T2 construct: Human HDAC11 (full length); His (N); host or cells: baculovirus expression system
T2 sequence (Q96DB2 1-347): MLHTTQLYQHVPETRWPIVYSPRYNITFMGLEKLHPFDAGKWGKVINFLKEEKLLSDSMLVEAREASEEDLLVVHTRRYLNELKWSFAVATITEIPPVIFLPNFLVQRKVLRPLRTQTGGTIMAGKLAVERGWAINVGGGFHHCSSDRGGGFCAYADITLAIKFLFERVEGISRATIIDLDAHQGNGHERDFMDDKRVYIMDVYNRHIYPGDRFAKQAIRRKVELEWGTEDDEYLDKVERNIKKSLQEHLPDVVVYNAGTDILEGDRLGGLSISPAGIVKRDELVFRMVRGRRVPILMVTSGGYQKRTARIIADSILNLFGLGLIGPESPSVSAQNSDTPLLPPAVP
Briefly: HDAC11 biochemical assay, class IIa-specific substrate. Particulars: read-out: HDAC Isoform IC50 (nM) 11. On the procedure:
as §1, §2
Human HDAC11 (full length) (GenBank Accession No. NM_024827) with N-terminal His tag, MW=42.9 kDa, expressed in baculovirus expression system.
as §3
HDAC11: 5 ng/ul HDAC11 and 50 μMHDAC substrate are in the reaction buffer with 1% DMSO final. Incubate for 30 minutes at 30° C.
as §4, §5

A value given as a limit tells only on which side of the number the result lay.

Usually IC50 stands for the concentration that gives 50% inhibition. For `Fc1ccnc(N(Cc2ccc(-c3noc(C(F)(F)F)n3)s2)c2cnccn2)c1` [Example AG, N-(4-Fluoropyridin-2-yl)-N-({5-[5-(trifluoromethyl)-1,2,4-oxadiazol-3-yl]thiophen-2-yl}methyl)pyrazin-2-amine], the IC50 in experiment [1] and in experiment [2] was above 10000 nM each time.
As to `FC(F)(F)c1nc(-c2ccc(CN(c3cnccn3)c3ncccn3)s2)no1` [Example AS, N-(Pyrimidin-2-yl)-N-({5-[5-(trifluoromethyl)-1,2,4-oxadiazol-3-yl]thiophen-2-yl}methyl)pyrazin-2-amine], the IC50 in experiment [1] and in experiment [2] was above 10000 nM each time.
Turning to `Cc1nccnc1N(Cc1ccc(-c2noc(C(F)(F)F)n2)s1)c1cnccn1` [Example BE, 3-Methyl-N-(pyrazin-2-yl)-N-({5-[5-(trifluoromethyl)-1,2,4-oxadiazol-3-yl]thiophen-2-yl}methyl)pyrazin-2-amine], the half-inhibitory concentration (IC50) in experiment [1] and in experiment [2] was above 10000 nM in each case.
Consider `COc1nccnc1N(Cc1ccc(-c2noc(C(F)(F)F)n2)s1)c1cnccn1` [Example BF, 3-Methoxy-N-(pyrazin-2-yl)-N-({5-[5-(trifluoromethyl)-1,2,4-oxadiazol-3-yl]thiophen-2-yl}methyl)pyrazin-2-amine], for which the IC50 in experiment [1] and in experiment [2] was above 10000 nM each time.
With `COc1cnc(N(Cc2ccc(-c3noc(C(F)(F)F)n3)s2)c2cnccn2)cn1` [Example BI, 5-Methoxy-N-(pyrazin-2-yl)-N-({5-[5-(trifluoromethyl)-1,2,4-oxadiazol-3-yl]thiophen-2-yl}methyl)pyrazin-2-amine], the IC50 in experiment [1] and in experiment [2] was above 10000 nM each time.
Regarding `FC(F)(F)c1cnc(N(Cc2ccc(-c3noc(C(F)(F)F)n3)s2)c2cnccn2)cn1` [Example BK, N-(Pyrazin-2-yl)-5-(trifluoromethyl)-N-({5-[5-(trifluoromethyl)-1,2,4-oxadiazol-3-yl]thiophen-2-yl}methyl)pyrazin-2-amine], the IC50 in experiment [1] and in experiment [2] was above 10000 nM in each case.
Regarding `FC(F)(F)c1nc(-c2ccc(CN(c3cnccn3)c3cnc(N4CCOCC4)cn3)s2)no1` [Example BM, 5-(Morpholin-4-yl)-N-(pyrazin-2-yl)-N-({5-[5-(trifluoromethyl)-1,2,4-oxadiazol-3-yl]thiophen-2-yl}methyl)pyrazin-2-amine], the IC50 in experiment [1] and in experiment [2] was above 10000 nM throughout.
With `Cc1cncc(N(Cc2ccc(-c3noc(C(F)(F)F)n3)s2)c2cnccn2)n1` [Example BP, 6-Methyl-N-(pyrazin-2-yl)-N-({5-[5-(trifluoromethyl)-1,2,4-oxadiazol-3-yl]thiophen-2-yl}methyl)pyrazin-2-amine], the IC50 in experiment [1] and in experiment [2] was above 10000 nM in each case.
In the case of `COc1cncc(N(Cc2ccc(-c3noc(C(F)(F)F)n3)s2)c2cnccn2)n1` [Example BQ, 6-Methoxy-N-(pyrazin-2-yl)-N-({5-[5-(trifluoromethyl)-1,2,4-oxadiazol-3-yl]thiophen-2-yl}methyl)pyrazin-2-amine], the IC50 in experiment [1] and in experiment [2] was above 10000 nM each time.
Turning to `FC(F)(F)c1cncc(N(Cc2ccc(-c3noc(C(F)(F)F)n3)s2)c2cnccn2)n1` [Example BR, N-(Pyrazin-2-yl)-6-(trifluoromethyl)-N-({5-[5-(trifluoromethyl)-1,2,4-oxadiazol-3-yl]thiophen-2-yl}methyl)pyrazin-2-amine], the IC50 in experiment [1] and in experiment [2] was above 10000 nM each time.
Turning to `O=C(O)c1ccc(N(Cc2sc(-c3noc(C(F)(F)F)n3)cc2F)c2cnccn2)nn1` [Example EZ, 6-[({3-Fluoro-5-[5-(trifluoromethyl)-1,2,4-oxadiazol-3-yl]thiophen-2-yl}methyl)(pyrazin-2-yl)amino]pyridazine-3-carboxylic acid], the IC50 in experiment [1] and in experiment [2] was above 10000 nM throughout.
In the case of `O=C(O)c1cnnc(N(Cc2sc(-c3noc(C(F)(F)F)n3)cc2F)c2cnccn2)c1` [Example FA, 6-[({3-fluoro-5-[5-(trifluoromethyl)-1,2,4-oxadiazol-3-yl]thiophen-2-yl}methyl)(pyrazin-2-yl)amino]pyridazine-4-carboxylic acid], the 50% inhibitory concentration (IC50) in experiment [1] and in experiment [2] was above 10000 nM each time.
`Nc1cnnc(N(Cc2ccc(-c3noc(C(F)(F)F)n3)s2)c2cnccn2)c1` [Example FL, N3-(Pyrazin-2-yl)-N3-({5-[5-(trifluoromethyl)-1,2,4-oxadiazol-3-yl]thiophen-2-yl}methyl)pyridazine-3,5-diamine]: the IC50 in experiment [1] and in experiment [2] was above 10000 nM in each case.
In the case of `CC(=O)Nc1cnnc(N(Cc2ccc(-c3noc(C(F)(F)F)n3)s2)c2cnccn2)c1` [Example FM, N-{6-[(Pyrazin-2-yl)({5-[5-(trifluoromethyl)-1,2,4-oxadiazol-3-yl]thiophen-2-yl}methyl)amino]pyridazin-4-yl}acetamide], the IC50 in experiment [1] and in experiment [2] was above 10000 nM throughout.
As for `FC(F)(F)c1nc(-c2ccc(CN(c3cnccn3)c3cc(N4CCOCC4)cnn3)s2)no1` [Example FP, 5-(Morpholin-4-yl)-N-(pyrazin-2-yl)-N-({5-[5-(trifluoromethyl)-1,2,4-oxadiazol-3-yl]thiophen-2-yl}methyl)pyridazin-3-amine], the IC50 in experiment [1] and in experiment [2] was above 10000 nM throughout.
With `FC(F)(F)c1nc(-c2ccc(CN(c3cnccn3)c3cc(N4CCCC4)cnn3)s2)no1` [Example FQ, N-(Pyrazin-2-yl)-5-(pyrrolidin-1-yl)-N-({5-[5-(trifluoromethyl)-1,2,4-oxadiazol-3-yl]thiophen-2-yl}methyl)pyridazin-3-amine], the IC50 in experiment [1] and in experiment [2] was above 10000 nM throughout.
For the molecule `O=C(c1ccc(N(Cc2ccc(-c3noc(C(F)(F)F)n3)s2)c2cnccn2)nn1)N1C[C@@H]2C[C@H]1C[S@@+]2[O-]` [Example FR, (1S,2R,4S)-5-{6-[(Pyrazin-2-yl)({5-[5-(trifluoromethyl)-1,2,4-oxadiazol-3-yl]thiophen-2-yl}methyl)amino]pyridazine-3-carbonyl}-2-thia-5-azabicyclo[2.2.1]heptan-2-ium-2-olate], the IC50 in experiment [1] and in experiment [2] was above 10000 nM throughout.
As to `O=C(c1cnnc(N(Cc2ccc(-c3noc(C(F)(F)F)n3)s2)c2cnccn2)c1)N1CC(F)(F)C1` [Example FT, 5-(3,3-Difluoroazetidine-1-carbonyl)-N-(pyrazin-2-yl)-N-({5-[5-(trifluoromethyl)-1,2,4-oxadiazol-3-yl]thiophen-2-yl}methyl)pyridazin-3-amine], the IC50 in experiment [1] and in experiment [2] was above 10000 nM each time.
With `O=C(c1cnnc(N(Cc2ccc(-c3noc(C(F)(F)F)n3)s2)c2cnccn2)c1)N1CCC(F)(F)CC1` [Example FY, 5-(4,4-Difluoropiperidine-1-carbonyl)-N-(pyrazin-2-yl)-N-({5-[5-(trifluoromethyl)-1,2,4-oxadiazol-3-yl]thiophen-2-yl}methyl)pyridazin-3-amine], the concentration for half-maximal inhibition (IC50) in experiment [1] and in experiment [2] was above 10000 nM in each case.
Regarding `O=C(c1cnnc(N(Cc2ccc(-c3noc(C(F)(F)F)n3)s2)c2cnccn2)c1)N1CC2(COC2)C1` [Example FZ, 5-{2-Oxa-6-azaspiro[3.3]heptane-6-carbonyl}-N-(pyrazin-2-yl)-N-({5-[5-(trifluoromethyl)-1,2,4-oxadiazol-3-yl]thiophen-2-yl}methyl)pyridazin-3-amine], the concentration for half-maximal inhibition (IC50) in experiment [1] and in experiment [2] was above 10000 nM in each case.
